The star is where a group is joined. Cbz = O=C(OCc1ccccc1)*; CH2F = FC*
Experiments:
[1] = system: activated (CD3/CD28 cross-linked) normal human T cells; assay: Apoptosis by Annexin V staining and flow cytometry, activated normal T cells; format: cell-based; conditions: 50 μM, 18 hours
Method: (§1) FIG. 4 is a pair of graphs showing the effect of […] on various cell lines, as determined by Annexin V staining and flow cytometry. The cells included the B-cell precursor ALL cell lines […], and NALM-6, the RAMOS, RAJI, and DAUDI Burkitt lymphoma cell lines, the CCRF-CEM, JURKAT, and H9 T lymphoma cell lines, the K-562 erythroleukemia cell line, and resting or activated (i.e., CD3/CD28 cross-linked) normal human T cells. […] Flow cytometry. Quantitation of apoptotic events was conducted using a FACS Calibur (BD Immunocytometry Systems). All analyses were conducted on cells with lymphoid light scatter characteristics (i.e., low to medium forward scatter and low 90° side scatter). iii. Annexin V. […] Cells were stained according to the manufacturers recommendations.

[2] = system: BLIN-1 cells; assay: Apoptosis by Annexin V staining and flow cytometry, BLIN-1; format: cell-based, human; conditions: BLIN-1, 50 μM, 18 hours
Method: (§2) Flow cytometry. Quantitation of apoptotic events was conducted using a FACS Calibur (BD Immunocytometry Systems). All analyses were conducted on cells with lymphoid light scatter characteristics (i.e., low to medium forward scatter and low 90° side scatter).
(§3) iii. Annexin V. FITC-labeled Annexin V (BD Pharmingen, San Diego, Calif.) was used to detect external phosphatidylserine residues appearing on the external surface of early apoptotic cells (Koopman Blood. 1994;84:1415-1420). Cells were stained according to the manufacturers recommendations.
(§4) General experimental strategy. BLIN cell lines were removed from fibroblast monolayers, washed once and resuspended to 7.5×10^5/ml in X-VIVO 10. Two hundred μL of resuspended cells were added to 96-well flat-bottom microtiter plates (ISC Bioexpress, Kaysville, Vt.), followed by 0.5-1.0 μL of caspase inhibitors in DMSO. An identical volume of DMSO alone was added to separate wells as a vehicle control. This final DMSO concentration of 0.25-0.5% vol/vol had no adverse affect on any of the BLIN cell lines. At the indicated times the entire content of individual wells was harvested and stained in the fluorescent protocols described above.
(§5) The inventors carried out experiments to test the influence of specific amino acid substitutions on the proapoptotic activity Z-LEHD-fmk. […]

[3] = system: BLIN-4L cells; assay: Apoptosis by Annexin V staining and flow cytometry, BLIN-4L; format: cell-based, human; conditions: 50 μM
Method: as §2, §3, §4, §5

[4] = system: JURKAT T lymphoma cells; assay: Fas response of JURKAT T lymphoma cells; format: cell-based; conditions: 50 μM
[5] = system: RAJI Burkitt lymphoma cell line; assay: Apoptosis by Annexin V staining and flow cytometry, RAJI; format: cell-based; conditions: 50 μM, 18 hours
Method: as §1

[6] = system: NALM-6 cells; assay: Apoptosis by Annexin V staining and flow cytometry, NALM-6; format: cell-based; conditions: NALM-6, 50 μM, 18 hours
Method: as §1

[7] = system: DAUDI Burkitt lymphoma cell line; assay: Apoptosis by Annexin V staining and flow cytometry, DAUDI; format: cell-based; conditions: 50 μM, 18 hours
Method: as §1

[8] = system: CD33+ myeloid cells; assay: Annexin V staining of sorted cord blood-derived CD33+ myeloid cells removed from MS-5 stroma; format: cell-based, human; conditions: cultured 18 hours, DMSO control 27.9 ± 3.9, Time 0 <10
[9] = system: K-562 erythroleukemia cell line; assay: Apoptosis by Annexin V staining and flow cytometry, K-562; format: cell-based; conditions: K-562, 50 μM, 18 hours
Method: as §1

[10] = system: leukemic cell lines; assay: Staurosporine response of panel of leukemic cell lines, Annexin V; format: cell-based; conditions: staurosporine plus 50 μM C9i; leukemic cells that responded to C9i alone
Method: as §1, with “recommendations. The inventors expanded their analysis of […] to other leukemic cell lines. […] The JURKAT T lymphoma cell line was also sensitive. In contrast, the RAJI and DAUDI Burkitt lymphoma cell lines, the H9 T lymphoma cell line, and the K-562 erythroleukemia cell line were insensitive to […]. […] The inventors also tested whether […] would potentiate the apoptotic effect of the widely used serine/threonine kinase inhibitor staurosporine. […] Thus, the leukemic cell lines were generally responsive to both […] and staurosporine, or responsive to neither.” for “recommendations.”

[11] = system: leukemia/lymphoma cells; assay: Pro-apoptotic activity of caspase inhibitor sequences (Table 2); format: cell-based; parameters: key: “−” is no activity; ++++ is maximum activity
From the text: Caspases are constitutively express in cells, and are usually in their pro-form. In response to an incident, such as irradiation or chemotherapy, the pro-form of the caspase is converted into the activated state. Certain compounds are known that can inhibit caspases. For example, the pan-caspase (PCi) VAD can block all caspases. […] For example, C2i inhibits caspase-2. This particular inhibitor is very dose dependent.

[12] = system: PARP (caspase-3/caspase-7 substrate); assay: Western blotting of PARP cleavage in BLIN-3 and BLIN-4L; format: cell-based, human; conditions: overnight incubation of BLIN-3 and BLIN-4L cells, 50 μM
Method: Western blotting. This method was conducted essentially as previously described.^20 The antibodies used were: rabbit anti-caspase-2 (catalog # sc-625, Santa Cruz Biotechnology Inc., Santa Cruz, Calif.), rabbit anti-caspase-3 (catalog # 9661, Upstate Cell Signaling Solutions, Waltham, Mass.), rabbit anti-caspase-6 (catalog # 9761, Upstate), rabbit anti-caspase-9 (catalog # 9502, Upstate), mouse anti-PARP (catalog # 556494, Pharmingen), and rabbit anti-Bid (catalog # AF846, R&D Systems). The antibodies to caspase-2 and caspase-9 were generated to the procaspase isoforms, whereas the antibodies to caspase-3 and caspase-6 were generated to cleavage products.
As expected, inclusion of 50 μM PCi had no effect. The degree of PARP cleavage in the presence of C9i (greater in BLIN-3 than BLIN-4L) correlated with the percentage of Annexin V+ cells (FIG. 3).

[13] = system: H9 T lymphoma cell line; assay: Apoptosis by Annexin V staining and flow cytometry, H9; format: cell-based; conditions: H9, 50 μM, 18 hours
Method: as §1

Z-LEHD-fmk (Cbz-LEHD-CH2F; SMILES CC(C)C[C@H](NC(=O)OCc1ccccc1)C(=O)N[C@@H](CCC(=O)O)C(=O)N[C@@H](Cc1c[nH]cn1)C(=O)N[C@@H](CC(=O)O)C(=O)CF) [C9i]
sensitivity (fold-increase in Annexin V+ cells vs DMSO) [1]: marginally sensitive | sensitivity (fold-increase in Annexin V+ cells vs DMSO) [2]: sensitive | apoptosis (Annexin V and TMRE staining) versus DMSO vehicle ([3]; BLIN-4L removed from adherent fibroblasts, 2-hour time points up to 8 hours): promoted apoptosis in BLIN-4L, albeit not as pronounced as in BLIN-3 | sensitivity (fold-increase in Annexin V+ cells vs DMSO) ([3]; BLIN-4L, 18 hours): sensitive | Fas response of JURKAT T lymphoma cells [4]: blocked the Fas response | sensitivity (fold-increase in Annexin V+ cells vs DMSO) [5]: insensitive | sensitivity (fold-increase in Annexin V+ cells vs DMSO) [6]: sensitive | sensitivity (fold-increase in Annexin V+ cells vs DMSO) [7]: insensitive | percentage of total Annexin V+ cells (PI+ and PI−), mean ± SD [8]: 22.3 ± 1.2% | sensitivity (fold-increase in Annexin V+ cells vs DMSO) [9]: insensitive | potentiation of the apoptotic effect of staurosporine [10]: enhanced the staurosporine response | Pro-apoptotic Activity (after 24 hours) [11]: ++++ | cleavage of the caspase-3/caspase-7 substrate PARP [12]: led to cleavage | sensitivity (fold-increase in Annexin V+ cells vs DMSO) [13]: insensitive

Reference: patent publication US20060040870A1, “Enhancement of apoptosis by caspase-9 inhibitors” (priority 2004, published 2006)
